Reference: patent publication US11607398B2, “Chlorogenic acid composition and method of weight management” (Vidya Herbs, Inc., priority 2015, dated 2023)
Where “and” joins values, the source holds several entries; their conditions need not be identical. Equal entries are not always repeated.

Columns and labels:
[1] = Reducing power assay (Fe3+ to Fe2+); format: biochemical; parameters: Reducing power activity: unit not given here
[2] = DPPH radical scavenging assay; format: biochemical
Method: The free radical scavenging capacity of the test sample was determined using DPPH scavenging assay. DPPH solution was prepared in 95% methanol. Freshly prepared DPPH solution was taken in test tubes and different concentration of test samples were added and incubated for 20 min. The absorbance was read at 517 nm using a spectrophotometer. Blank was prepared containing the same volume of reaction mixture without any tested samples. The percentage of scavenging was calculated using the formula: % Scavenging=Ac−As/Ac×100 Where AC was the absorbance of the control (blank) and AS was the absorbance in the presence of the composition (Braca et al., 2001).

[3] = Superoxide anion scavenging activity (NBT/NADH/PMS); format: biochemical
Method: Prepared all the solutions in this experiment using phosphate buffer (pH 7.4). Added 1 ml of NBT (156 μM), 1 ml of NADH (468 μM) and 3 ml of test samples to all test tubes. The reaction was started by adding 100 ml of PMS (60 μM) and incubated the mixture at 25° C. for 5 min followed by measurement of absorbance at 560 nm. The percentage of scavenging was calculated using formula: % Scavenging=Ac−As/Ac×100 Where AC was the absorbance of the control (blank) and As was the absorbance in the presence of the composition.

calf thymus DNA = test: Protective effect on DNA scission induced by hydroxyl radical (TBA assay); format: biochemical
Method: In this assay hydroxyl radicals are typically generated within a mixture of ascorbic acid, H2O2 and Fe3+-ethylenediaminetetracetic acid (EDTA); those radicals that are not scavenged by other components of the reaction mixture will eventually attack deoxyribose, thus degrading it into a series of fragments.
The experiment was conducted using calf thymus DNA. Briefly, sample was dissolved in ethanol at 1 mg/mL. 50 μl of different concentration of sample was then separately taken into mini tubes followed by addition of 400 μL of phosphate buffer (0.2 mol/L, pH 7.4). Subsequently, 50 μL DNA sodium, 50 μL H2O2, 50 μL FeCl3 and 50 μL Na2EDTA (1 mmol/L) were added. The reaction was initiated by adding 50 μL ascorbic acid (18 mmol/L) and the total volume of the reaction mixture was adjusted to 800 μL with buffer. After incubation in a water bath at 55° C. for 20 min, the reaction was terminated by adding 250 μL TCA.
The color was then developed by addition of 150 μL of TBA and heating in an oven at 105° C. for 15 min. The mixture was cooled and absorbance was measured at 532 nm against the buffer (as blank). The percent of protection against DNA damage is expressed Protective effect %=(1−A/A0)×100 Where A0 is the absorbance of the mixture without sample, and A is the absorbance of the mixture with sample. Results

[4] = system: Salmonella typhimurium TA 98; test: Ames Salmonella mutagenicity test (preincubation method), strain TA 98; format: cell-based; conditions: TA 98, +s9, positive control, concentration not given
[5] = system: Salmonella typhimurium TA 100; format: cell-based; conditions: TA 100, +s9, positive control, concentration not given

O=C1O[C@H]([C@@H](O)CO)C(O)=C1O [Ascorbic acid]
Absorbance (reductive capability, 700 nm) ([1]; 100 μg/ml): 0.970
Reducing power activity ([1]; 20 (Table 7; range 20-100 μg/ml per text)): 15.46
Reducing power activity ([1]; 40 (Table 7)): 16.60
Reducing power activity ([1]; 60 (Table 7)): 16.61
Reducing power activity ([1]; 80 (Table 7)): 17.33
Reducing power activity ([1]; 100 (Table 7)): 18.59
% inhibition (DPPH scavenging activity) ([2]; 20 μg/ml): 83.21%
Absorbance @517 nm ([2]; 20 μg/ml): 0.046
% inhibition (DPPH scavenging activity) ([2]; 40 μg/ml): 90.88%
Absorbance @517 nm ([2]; 40 μg/ml): 0.025
% inhibition (DPPH scavenging activity) ([2]; 60 μg/ml): 94.53%
Absorbance @517 nm ([2]; 60 μg/ml): 0.015
% inhibition (DPPH scavenging activity) ([2]; 80 μg/ml): 94.89%
Absorbance @517 nm ([2]; 80 μg/ml): 0.014
% inhibition (DPPH scavenging activity) ([2]; 100 μg/ml): 96.72%
Absorbance @517 nm ([2]; 100 μg/ml): 0.009
% inhibition (DPPH scavenging activity) ([2]; 100 μg/ml, listed as ascorbic acid): 96.71%
% inhibition (superoxide scavenging activity) ([3]; 20 μg/ml): 84.80%
Absorbance @560 nm ([3]; 20 μg/ml): 0.038
% inhibition (superoxide scavenging activity) ([3]; 40 μg/ml): 85.20%
Absorbance @560 nm ([3]; 40 μg/ml): 0.037
% inhibition (superoxide scavenging activity) ([3]; 60 μg/ml): 88.40%
Absorbance @560 nm ([3]; 60 μg/ml): 0.029
% inhibition (superoxide scavenging activity) ([3]; 80 μg/ml): 89.20%
Absorbance @560 nm ([3]; 80 μg/ml): 0.027
% inhibition (superoxide scavenging activity) ([3]; 100 μg/ml): 89.60%
Absorbance @560 nm ([3]; 100 μg/ml): 0.026

COc1ccc(O)c(C(C)(C)C)c1 [BHA]
% protective effect (DNA damage) (calf thymus DNA; 10 μg/ml): 15.79 ± 0.89%
% protective effect (DNA damage) (calf thymus DNA; 20 μg/ml): 19.25 ± 1.09%
% protective effect (DNA damage) (calf thymus DNA; 40 μg/ml): 32.50 ± 2.12%
% protective effect (DNA damage) (calf thymus DNA; 60 μg/ml): 39.16 ± 0.33%
% protective effect (DNA damage) (calf thymus DNA; 80 μg/ml): 43.04 ± 0.29%
% protective effect (DNA damage) (calf thymus DNA; 100 μg/ml): 51.37% and 51.37 ± 4.06%

Nc1ccc2cc3ccccc3cc2c1 [PC 2AF, 2-aminoanthracene]
Revertant colonies/plate (Mean n = 2 ± S.D.) [4]: 1560 ± 3.53 Revertant colonies/plate
Revertant colonies/plate (Mean n = 2 ± S.D.) [5]: 2737 ± 4.9 Revertant colonies/plate
